Key:
Experiment in all cases: Competitive isoTOP-ABPP in situ (fragment-treated cells)
Format in all cases: cell-based
Details in all cases: 200 μM, insitu
[1] = target: cysteines in MDA-MB-231 and Ramos cells (Homo sapiens, UniProt Q15021)
[2] = target: T1, cysteines in MDA-MB-231 and Ramos cells (Homo sapiens, UniProt Q9Y3D0)
T1 sequence (Q9Y3D0 1-163): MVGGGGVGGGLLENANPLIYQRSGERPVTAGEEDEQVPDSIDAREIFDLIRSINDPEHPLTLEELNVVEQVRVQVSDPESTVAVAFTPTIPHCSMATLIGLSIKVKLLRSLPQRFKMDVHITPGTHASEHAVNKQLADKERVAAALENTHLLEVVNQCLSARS

[3] = target: cysteines in MDA-MB-231 and Ramos cells (Homo sapiens, UniProt P83731)
[4] = target: T2, cysteines in MDA-MB-231 and Ramos cells (Homo sapiens, UniProt P10599)
T2 sequence (P10599 1-105): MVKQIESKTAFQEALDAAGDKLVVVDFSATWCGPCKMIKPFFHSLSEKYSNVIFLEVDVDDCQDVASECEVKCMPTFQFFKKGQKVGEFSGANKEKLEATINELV

[5] = target: T3, cysteines in MDA-MB-231 and Ramos cells (Homo sapiens, UniProt Q13428)
T3 sequence (Q13428 1-1488): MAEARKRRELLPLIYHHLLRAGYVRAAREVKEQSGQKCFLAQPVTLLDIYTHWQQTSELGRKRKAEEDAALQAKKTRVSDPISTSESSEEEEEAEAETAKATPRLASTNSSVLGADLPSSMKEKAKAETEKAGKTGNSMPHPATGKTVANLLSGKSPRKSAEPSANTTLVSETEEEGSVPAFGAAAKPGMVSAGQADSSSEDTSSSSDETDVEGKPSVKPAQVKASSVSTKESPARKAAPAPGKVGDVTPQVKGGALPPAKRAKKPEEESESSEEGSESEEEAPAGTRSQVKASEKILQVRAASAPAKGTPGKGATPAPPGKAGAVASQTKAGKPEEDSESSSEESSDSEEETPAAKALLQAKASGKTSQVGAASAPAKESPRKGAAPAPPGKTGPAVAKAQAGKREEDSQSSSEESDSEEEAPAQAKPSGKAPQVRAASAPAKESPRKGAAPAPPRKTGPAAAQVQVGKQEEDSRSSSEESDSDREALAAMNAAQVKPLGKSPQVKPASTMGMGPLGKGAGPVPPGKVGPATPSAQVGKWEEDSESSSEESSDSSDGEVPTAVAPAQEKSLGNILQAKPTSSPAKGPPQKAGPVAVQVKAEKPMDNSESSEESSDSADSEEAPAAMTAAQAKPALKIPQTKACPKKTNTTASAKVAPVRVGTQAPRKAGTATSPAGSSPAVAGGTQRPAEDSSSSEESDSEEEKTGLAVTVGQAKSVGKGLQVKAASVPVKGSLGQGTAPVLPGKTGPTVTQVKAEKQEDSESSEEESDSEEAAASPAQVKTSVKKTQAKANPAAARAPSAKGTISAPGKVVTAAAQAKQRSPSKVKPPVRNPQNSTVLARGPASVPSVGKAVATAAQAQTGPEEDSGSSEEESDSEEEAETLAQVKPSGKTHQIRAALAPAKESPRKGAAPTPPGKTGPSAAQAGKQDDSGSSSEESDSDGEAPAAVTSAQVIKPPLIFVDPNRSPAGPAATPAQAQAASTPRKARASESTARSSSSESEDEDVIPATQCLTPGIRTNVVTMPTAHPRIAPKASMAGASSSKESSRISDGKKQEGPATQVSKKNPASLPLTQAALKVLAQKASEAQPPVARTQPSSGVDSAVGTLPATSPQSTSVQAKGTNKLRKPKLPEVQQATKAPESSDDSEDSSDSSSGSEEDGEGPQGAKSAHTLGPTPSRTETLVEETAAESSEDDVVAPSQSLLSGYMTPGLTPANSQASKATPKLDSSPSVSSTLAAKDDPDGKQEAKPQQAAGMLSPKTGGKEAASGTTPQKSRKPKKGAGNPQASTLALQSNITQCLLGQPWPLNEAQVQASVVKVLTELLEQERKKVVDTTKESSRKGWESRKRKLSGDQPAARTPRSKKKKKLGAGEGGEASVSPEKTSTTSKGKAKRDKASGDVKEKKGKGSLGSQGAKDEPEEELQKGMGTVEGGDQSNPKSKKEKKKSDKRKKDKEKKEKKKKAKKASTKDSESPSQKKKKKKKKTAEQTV

[6] = target: T4, cysteines in MDA-MB-231 and Ramos cells (Homo sapiens, UniProt Q9UMS0)
T4 sequence (Q9UMS0 10-254): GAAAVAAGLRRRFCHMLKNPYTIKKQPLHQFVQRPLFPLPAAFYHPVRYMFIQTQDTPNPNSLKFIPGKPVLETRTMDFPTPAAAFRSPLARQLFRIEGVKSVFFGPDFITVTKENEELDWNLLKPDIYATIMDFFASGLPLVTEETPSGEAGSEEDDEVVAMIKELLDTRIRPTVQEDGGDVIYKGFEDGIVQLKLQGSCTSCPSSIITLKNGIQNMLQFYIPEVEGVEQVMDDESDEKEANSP

[7] = target: T5, cysteines in MDA-MB-231 and Ramos cells (Homo sapiens, UniProt Q15233)
T5 sequence (Q15233 1-471): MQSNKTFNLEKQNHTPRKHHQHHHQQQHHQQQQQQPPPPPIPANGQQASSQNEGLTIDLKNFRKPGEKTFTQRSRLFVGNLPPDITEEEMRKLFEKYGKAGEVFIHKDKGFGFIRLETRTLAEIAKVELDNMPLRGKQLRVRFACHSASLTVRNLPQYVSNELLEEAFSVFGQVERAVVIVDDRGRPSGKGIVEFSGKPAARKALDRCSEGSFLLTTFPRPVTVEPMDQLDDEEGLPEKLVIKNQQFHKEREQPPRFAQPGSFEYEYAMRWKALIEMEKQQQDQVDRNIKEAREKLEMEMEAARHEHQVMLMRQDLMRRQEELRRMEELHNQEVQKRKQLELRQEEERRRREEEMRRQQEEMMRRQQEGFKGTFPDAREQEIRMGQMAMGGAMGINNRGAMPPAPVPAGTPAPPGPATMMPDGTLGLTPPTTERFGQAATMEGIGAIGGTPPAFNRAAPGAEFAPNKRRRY

Sequence of cysteines in MDA-MB-231 and Ramos cells (Homo sapiens, UniProt Q15021) (Q15021 whole entry): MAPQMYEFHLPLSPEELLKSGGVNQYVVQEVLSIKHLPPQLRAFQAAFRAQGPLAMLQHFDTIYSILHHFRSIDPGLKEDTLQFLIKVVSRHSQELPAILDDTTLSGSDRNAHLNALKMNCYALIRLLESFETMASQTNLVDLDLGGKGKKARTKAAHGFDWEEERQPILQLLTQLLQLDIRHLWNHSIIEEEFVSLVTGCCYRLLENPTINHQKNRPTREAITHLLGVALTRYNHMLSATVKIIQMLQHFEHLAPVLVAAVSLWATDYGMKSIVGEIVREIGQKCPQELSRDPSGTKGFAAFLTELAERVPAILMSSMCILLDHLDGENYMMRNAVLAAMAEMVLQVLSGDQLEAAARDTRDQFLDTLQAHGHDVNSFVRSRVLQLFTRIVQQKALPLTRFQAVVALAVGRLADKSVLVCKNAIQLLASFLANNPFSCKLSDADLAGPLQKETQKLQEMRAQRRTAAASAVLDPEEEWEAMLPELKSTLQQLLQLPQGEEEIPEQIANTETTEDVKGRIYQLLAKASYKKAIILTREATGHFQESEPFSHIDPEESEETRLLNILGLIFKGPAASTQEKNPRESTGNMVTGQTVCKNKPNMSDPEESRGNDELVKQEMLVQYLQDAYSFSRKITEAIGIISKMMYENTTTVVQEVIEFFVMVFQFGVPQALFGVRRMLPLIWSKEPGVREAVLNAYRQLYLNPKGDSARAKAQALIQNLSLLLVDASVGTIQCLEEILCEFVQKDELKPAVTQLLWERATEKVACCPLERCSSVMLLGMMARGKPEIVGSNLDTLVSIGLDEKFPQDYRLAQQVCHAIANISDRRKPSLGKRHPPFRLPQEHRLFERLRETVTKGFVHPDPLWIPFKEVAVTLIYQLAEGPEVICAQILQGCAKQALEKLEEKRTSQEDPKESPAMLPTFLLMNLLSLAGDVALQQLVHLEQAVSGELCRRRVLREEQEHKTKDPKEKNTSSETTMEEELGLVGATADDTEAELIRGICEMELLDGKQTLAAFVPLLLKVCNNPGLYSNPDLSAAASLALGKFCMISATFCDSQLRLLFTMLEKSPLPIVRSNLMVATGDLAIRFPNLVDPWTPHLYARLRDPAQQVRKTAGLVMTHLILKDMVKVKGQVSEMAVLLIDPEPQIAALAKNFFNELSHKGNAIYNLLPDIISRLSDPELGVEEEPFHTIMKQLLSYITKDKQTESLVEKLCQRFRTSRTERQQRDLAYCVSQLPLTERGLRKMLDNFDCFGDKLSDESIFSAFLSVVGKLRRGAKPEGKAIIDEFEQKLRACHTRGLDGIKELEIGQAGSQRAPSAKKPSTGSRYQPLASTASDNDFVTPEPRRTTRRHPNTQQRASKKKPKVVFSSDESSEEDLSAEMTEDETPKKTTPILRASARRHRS

Row | Compound | isoTOP-ABPP ratio Q15021_C439 [1]; 231 | isoTOP-ABPP ratio Q9Y3D0_C93 [2]; 231 | isoTOP-ABPP ratio P83731_C6 [3]; 231 | isoTOP-ABPP ratio P10599_C32 [4]; 231 | isoTOP-ABPP ratio Q13428_C38 [5]; 231 | isoTOP-ABPP ratio Q9UMS0_C213 [6]; 231 | isoTOP-ABPP ratio Q15233_C145 [7]; 231 | isoTOP-ABPP ratio Q13428_C1298 [5]; 231 | isoTOP-ABPP ratio Q9UMS0_C213 ([6]; ramos) | isoTOP-ABPP ratio Q15021_C439 ([1]; ramos) | isoTOP-ABPP ratio Q9Y3D0_C93 ([2]; ramos) | isoTOP-ABPP ratio P83731_C6 ([3]; ramos) | isoTOP-ABPP ratio P10599_C32 ([4]; ramos) | isoTOP-ABPP ratio Q13428_C38 ([5]; ramos) | isoTOP-ABPP ratio Q15233_C145 ([7]; ramos) | isoTOP-ABPP ratio Q13428_C1298 ([5]; ramos)
1 | CC(C)CCOCCNC(=O)CCl [compound 27] | 0.6 | 0.7 | 0.4 | 2.5 | 1.3 | 1.3 | 1.2 | 1.0 |  |  |  |  |  |  |  | 
2 | O=C(CCl)N1CCN(CC(=O)N2CCOCC2)CC1 [compound 29] |  |  |  |  |  |  |  |  | 2.0 | 1.4 | 1.0 | 1.6 | 1.9 | 1.5 |  | 
3 | C=CC(=O)N(Cc1cccnc1)c1cc(C(F)(F)F)cc(C(F)(F)F)c1 [compound 31] | 20.0 |  |  | 1.2 |  | 1.5 | 0.7 |  |  |  |  |  | 1.7 |  | 0.8 | 2.2
4 | C=CC(=O)Nc1cc(F)c(N2CCN(C(=O)OC(C)(C)C)CC2)c(F)c1 [compound 38] | 1.1 | 2.4 | 2.1 | 2.1 | 1.1 | 3.5 | 0.9 | 2.0 |  |  |  |  |  |  |  | 
5 | O=C(CCl)Nc1cccc2ncccc12 [compound 51] | 1.1 | 20.0 |  | 13.9 | 1.1 | 1.8 | 1.6 |  |  |  |  |  |  |  |  | 

More lines, now with the values ahead:

Row | isoTOP-ABPP ratio Q15021_C439 [1]; 231 | isoTOP-ABPP ratio Q9Y3D0_C93 [2]; 231 | isoTOP-ABPP ratio P83731_C6 [3]; 231 | isoTOP-ABPP ratio P10599_C32 [4]; 231 | isoTOP-ABPP ratio Q13428_C38 [5]; 231 | isoTOP-ABPP ratio Q9UMS0_C213 [6]; 231 | isoTOP-ABPP ratio Q15233_C145 [7]; 231 | isoTOP-ABPP ratio Q13428_C1298 [5]; 231 | isoTOP-ABPP ratio Q9UMS0_C213 ([6]; ramos) | isoTOP-ABPP ratio Q15021_C439 ([1]; ramos) | isoTOP-ABPP ratio Q9Y3D0_C93 ([2]; ramos) | isoTOP-ABPP ratio P83731_C6 ([3]; ramos) | isoTOP-ABPP ratio P10599_C32 ([4]; ramos) | isoTOP-ABPP ratio Q13428_C38 ([5]; ramos) | isoTOP-ABPP ratio Q15233_C145 ([7]; ramos) | isoTOP-ABPP ratio Q13428_C1298 ([5]; ramos) | Compound
6 | 0.7 | 0.5 | 1.0 | 3.9 | 1.5 |  |  |  |  |  |  |  |  |  |  |  | O=C(CCl)NC12CC3CC(CC(C3)C1)C2 [compound 21]
7 | 0.9 | 0.8 |  | 20.0 | 1.0 |  | 1.1 | 0.9 |  |  |  |  |  |  |  |  | COc1ccccc1OCCNC(=O)CCl [compound 28]
8 | 0.8 | 0.6 | 0.3 | 0.4 | 1.1 | 0.9 | 1.1 | 1.0 |  |  |  |  |  |  |  |  | Cc1ccc(C=C(C#N)C(=O)NCCN2CCOCC2)cc1 [compound 41]
9 |  | 20.0 | 1.2 | 5.7 | 2.8 | 7.1 | 3.7 | 4.7 |  |  |  |  |  |  |  |  | CC1CCc2ccccc2N1C(=O)CCl (stereo not shown) [compound 45]

Reference: US10670605B2, “Cysteine reactive probes and uses thereof” (The Scripps Research Institute, priority 2015, dated 2020)
